We go through 24 compounds from ChEMBL document CHEMBL4765279, “Discovery of a novel series of imidazo[1',2':1,6]pyrido[2,3-d]pyrimidin derivatives as potent cyclin-dependent kinase 4/6 inhibitors” (Eur J Med Chem, 2020).

Test [1] deals with CDK4/Cyclin D3 (Homo sapiens, UniProt P11802). Description: Inhibition of recombinant human full-length N-terminal GST-fused CDK4 (1 to 303 residues)/GST-tagged CyclinD3 (1 to 292 residues) expressed in baculovirus expression system using ULight-elF4E-binding protein 1 peptide as substrate measured after 30 mins by LANCE assay. Background: TR-FRET usually uses a lanthanide donor and a delayed reading to cut background.
CDK4/Cyclin D3, sequence (P11802 whole entry, the tested form may be a part): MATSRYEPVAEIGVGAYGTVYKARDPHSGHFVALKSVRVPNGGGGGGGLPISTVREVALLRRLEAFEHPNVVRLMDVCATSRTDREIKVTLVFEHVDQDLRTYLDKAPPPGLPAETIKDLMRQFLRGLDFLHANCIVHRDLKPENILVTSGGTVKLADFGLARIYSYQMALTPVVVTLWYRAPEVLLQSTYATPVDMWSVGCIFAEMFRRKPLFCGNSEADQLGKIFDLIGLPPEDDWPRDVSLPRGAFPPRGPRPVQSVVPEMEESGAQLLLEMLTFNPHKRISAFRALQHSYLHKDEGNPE
CDK4/Cyclin D3, sequence (P30281 whole entry, further chain, the tested form may be a part): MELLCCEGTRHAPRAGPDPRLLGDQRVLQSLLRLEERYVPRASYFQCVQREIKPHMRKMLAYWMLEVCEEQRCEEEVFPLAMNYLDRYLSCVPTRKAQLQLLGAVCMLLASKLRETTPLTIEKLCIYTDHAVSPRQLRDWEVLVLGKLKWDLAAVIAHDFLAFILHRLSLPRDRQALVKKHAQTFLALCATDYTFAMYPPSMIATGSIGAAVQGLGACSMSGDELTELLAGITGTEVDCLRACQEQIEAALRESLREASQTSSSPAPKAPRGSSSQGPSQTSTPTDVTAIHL

Test [2] deals with CDK6/Cyclin D3 (Homo sapiens, UniProt Q00534). Description: Inhibition of human full-length N-terminal GST tagged CDK6 (1 to 326 residues)/GST-tagged cyclinD3 (1 to 292 residues) expressed in baculovirus expression system using ULight-elF4E-binding protein 1 peptide as substrate measured after 30 mins by LANCE assay.
CDK6/Cyclin D3, sequence (Q00534 whole entry, looked up, the tested form may be a part): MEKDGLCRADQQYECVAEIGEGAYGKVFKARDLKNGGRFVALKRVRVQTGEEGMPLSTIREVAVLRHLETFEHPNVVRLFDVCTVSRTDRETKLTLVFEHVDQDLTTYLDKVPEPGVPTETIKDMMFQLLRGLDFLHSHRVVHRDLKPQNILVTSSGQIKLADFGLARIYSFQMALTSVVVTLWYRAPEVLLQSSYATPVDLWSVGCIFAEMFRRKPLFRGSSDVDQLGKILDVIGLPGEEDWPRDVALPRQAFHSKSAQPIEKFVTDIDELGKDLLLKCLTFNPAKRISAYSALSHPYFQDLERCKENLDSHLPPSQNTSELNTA
For test [3], the system named is COLO 205. Description: Antiproliferative activity against human COLO 205 cells assessed as cell growth inhibition measured after 4 to 6 days by celltiter-glo luminescent cell viability assay. The test is classed as functional, cell-based.
Test [4] concerns U-87 MG. Description: Antiproliferative activity against human U-87 MG cells assessed as cell growth inhibition measured after 4 to 6 days by celltiter-glo luminescent cell viability assay. The test is classed as functional, cell-based, U-87MG ATCC. In general terms: Cellular ATP, detected with luciferase, serves as a proxy for viable cell number.
Test [5] has as its system COLO 205. Description: Cell cycle arrest in human COLO 205 cells assessed as accumulation at G0/G1 phase at 200 nM measured after 24 hrs by propidium iodide staining based flow cytometry relative to control. It is filed as functional. In general terms: A flow cytometer gives signals particle by particle.
For test [6], the system named is MDA-MB-468. Description: Antiproliferative activity against human MDA-MB-468 cells assessed as cell growth inhibition measured after 4 to 6 days by celltiter-glo luminescent cell viability assay. The test is classed as functional, cell-based.

Usually IC50 stands for the point on the concentration scale where inhibition reaches its midpoint. Turning to `Cc1cn2c(n1)c(C#N)c(C)c1cnc(Nc3ccc(N4CCOCC4)cc3)nc12`, the values for the IC50 in test [1] and in test [2] were 123 nM and 110 nM, respectively.
Taken in the same sequence, the figures for `Cc1cn2c(n1)c(C#N)c(C)c1cnc(Nc3ccc(Br)cc3)nc12` were over 3330 nM and 924 nM.
For the compound `Cc1cn2c(n1)c(C#N)c(C)c1cnc(Nc3ccc(Cl)cc3)nc12`, the concentration for half-maximal inhibition (IC50) in test [1] came out at 271 nM; in test [2] it was 280 nM.
Turning to `CC(=O)c1c(C)c2cnc(Nc3ccc(CN4CCNCC4)cn3)nc2n2cc(C(C)C)nc12`, the 50% inhibitory concentration (IC50) worked out at 2.2 nM in test [1], 2.5 nM in test [2], 356 nM in test [3] and 165 nM in test [4].
Taken in the same sequence, the figures for `CC(=O)c1c(C)c2cnc(Nc3ccc(N4CCNCC4)cc3)nc2n2cc(C3CCCC3)nc12` were 4.7 nM, 5.9 nM, 73.4 nM and 64.8 nM.
Regarding `CC(=O)c1c(C)c2cnc(Nc3ccc(N4CCNCC4)cc3)nc2n2cc(C(=O)N3CCCC3)nc12`, the concentration for half-maximal inhibition (IC50) in test [1] is 59 nM; in test [2], 150 nM; in test [4], over 10000 nM.
Take `CC(=O)c1c(C)c2cnc(Nc3ccc(C(=O)N4CCNCC4)cn3)nc2n2cc(C(C)C)nc12`: the IC50 worked out at 5.3 nM in test [1], 5.6 nM in test [2], 932 nM in test [3] and 380 nM in test [4].
The corresponding values for `CC(=O)c1c(C)c2cnc(Nc3ccc4c(n3)CCN(CCN(C)C)C4)nc2n2cc(C(C)C)nc12` are 4.2 nM, 5.1 nM, 324 nM and 249 nM.
Turning to `Cc1cn2c(n1)c(C#N)c(C)c1cnc(Nc3ccc(N4CCNCC4)cc3)nc12`, the IC50 was found to be 26.5 nM in test [1] and 33.6 nM in test [2].
With `CNCCN1CCc2nc(Nc3ncc4c(C)c(C(C)=O)c5nc(C(C)C)cn5c4n3)ccc2C1`, the concentration for half-maximal inhibition (IC50) in test [1] came out at 2.7 nM; in test [2], 7.1 nM; in test [3], 639 nM; in test [4] it was 184 nM.
With `CC(=O)c1c(C)c2cnc(Nc3ccc4c(n3)CCNC4)nc2n2cc(C(C)C)nc12`, the half-inhibitory concentration (IC50) in test [1] is 9.9 nM; in test [2], 23.1 nM; in test [3] it was 5740 nM; in test [4] it was 3720 nM.
As to `CC(=O)c1c(C)c2cnc(Nc3ccc(N4CCC(N(C)C)C4)cn3)nc2n2cc(C(C)C)nc12` (stereo not given), the IC50 in test [1] worked out at 4.5 nM; in test [2] it was 4.3 nM; in test [3], 1420 nM; in test [4], 536 nM.
On to `CC(=O)c1c(C)c2cnc(Nc3ccc(N4CCNCC4)cc3)nc2n2cc(C3CCCCC3)nc12`, for which the IC50 in test [1] amounted to 18.9 nM; in test [2], 22.2 nM; in test [3] it was 121 nM; in test [4], 122 nM.
Turning to `Cc1cn2c(n1)c(C#N)c(C)c1cnc(Nc3ccccc3)nc12`, the half-maximal inhibitory concentration (IC50) in test [1] is 98.9 nM; in test [2], 112 nM.
Take `CC(=O)c1c(C)c2cnc(Nc3ccc(N4CCNCC4)cc3)nc2n2cc(C)nc12`: the half-inhibitory concentration (IC50) in test [1] was 3.6 nM; in test [2], 10.2 nM; in test [3] it was 583 nM; in test [4] it was 1260 nM.
Taken in the same sequence, the figures for `CC(=O)c1c(C)c2cnc(Nc3ccc(N4CCNCC4)cn3)nc2n2cc(C(C)C)nc12` were 3.7 nM, 3.7 nM, 290 nM and 291 nM.
In the case of `CC(=O)c1c(C)c2cnc(Nc3ccc(N4CC5(CCOCC5)C4)cn3)nc2n2cc(C(C)C)nc12`, the IC50 turned out to be 9.9 nM in test [1], 25.7 nM in test [2], 534 nM in test [3] and 539 nM in test [4].
With `Cc1cn2c(n1)c(C#N)c(C)c1cnc(N)nc12`, the figures for the IC50 in test [1] and in test [2] were 592 nM and 3090 nM, respectively.
As to `CC(=O)c1c(C)c2cnc(Nc3ccc(N4CCC5(CCNC5)C4)cn3)nc2n2cc(C(C)C)nc12` (stereo not given), the concentration for half-maximal inhibition (IC50) in test [1] came to 4 nM; in test [2], 3.8 nM; in test [3], 1280 nM; in test [4], 719 nM.
On to `CC(=O)c1c(C)c2cnc(Nc3ccc(N4CCNCC4)cn3)nc2n(C2CCCC2)c1=O` [PALBOCICLIB], for which, in test [5], the Activity is reported as 95.7%. Also, the results for the concentration for half-maximal inhibition (IC50) in test [3], in test [4] and in test [6] were 301 nM, 345 nM and 5420 nM, respectively.
Take `CCN1CCN(Cc2ccc(Nc3ncc(F)c(-c4cc(F)c5nc(C)n(C(C)C)c5c4)n3)nc2)CC1` [ABEMACICLIB]: the Activity in test [5] was found to be 95.3%. Further, the half-maximal inhibitory concentration (IC50) in test [6] was determined as 1140 nM.
As to `CC(=O)c1c(C)c2cnc(Nc3ccc(N4CCNCC4)cc3)nc2n2cc(-c3ccccc3)nc12`, the IC50 in test [1] came to 13.5 nM; in test [2], 32.8 nM; in test [3] it was 474 nM; in test [4] it was 412 nM.
On to `Cc1c(C#N)c2nc(C(C)C)cn2c2nc(Nc3ccc(N4CCNCC4)cc3)ncc12`, for which the IC50 came out at 10.3 nM in test [1], 9 nM in test [2] and 585 nM in test [4].
Turning to `CCOC(=O)c1cn2c(n1)c(C(C)=O)c(C)c1cnc(Nc3ccc(N4CCNCC4)cc3)nc12`, the IC50 is 22.3 nM in test [1], 86.6 nM in test [2], 2840 nM in test [3] and over 10000 nM in test [4].
